Entries after “also recorded” stand apart in the source; their conditions may differ.
Tests used:
[1] = tested on: MT3 transcription in human colon cancer HCT15 cells; assay: MT3 transcription in HCT15 cells, microarray analysis; format: cell-based; settings: 1 uM
Text: Total RNAs were extracted and RNA quality analysis was done using Agilent 2100 bioanalyzer and Agilent's RNA Labchip kits. RNAs were labeled with either Cy3 or Cy5 using Agilent's optimized labeling kits and hybridized to Human whole genome 44K Oligo Microarray (Agilent, Palo Alto, Calif.). Slides were scanned using DNA microarry scanner from Agilent and the raw data was extracted using Agilent's image analysis tool (feature extraction software). Normalization and statistical analysis were performed using GeneSpring software. Biological analysis was performed using Biointerpreter software.

[2] = tested on: co-cultured human endothelial cells; assay: Human multicellular angiogenesis model (AngioKit); format: cell-based; settings: AngioKit, 30, 100 and 300 nM
Experimental: Briefly, 24 well plates were seeded with cells on day 0 and medium was changed on days 3, 4, 7, 10 and 12. […] All AngioKits were then fixed and stained on day 14, using the CD31 Staining Kits according to the standard AngioKit procedure. Comparison of tubule development was conducted using the “AngioSys” image analysis system developed specifically for the analysis of images produced using the AngioKit. Four images taken from predetermined positions within each well were recorded. Each concentration of test compound therefore yielded […] for analysis in duplicate. Images were always taken from as close to the centre of each quadrant as possible. Four tubule parameters were measured: total tubule length, total tubule area, number of branch points and number of tubules formed. All statistical analyses were carried out using the Stat 100 programme from BIOSOFT Ltd. using ANOVA and Duncan's Multiple Comparison Test to measure differences between the test compounds with the untreated control values. Alpha was always 0.05 unless otherwise stipulated.

[3] = tested on: histone H3 acetylation in human bladder carcinoma T24 cells; assay: Cell-based ELISA for H3 acetylation
Experimental: Bladder carcinoma T24 cells were seeded in black plates with clear bottoms (Costar #3603) at 1×10^4 cells per well in a volume of 100 μl per well, and were allowed to settle for one day at 37° C. in a CO2 incubator. The cells were treated for 16 h with various concentrations of HDAC inhibitors. 3 h before the end of the treatment, Alamar Blue (BioSource) was added to monitor cell viability according to the manufacturer's instructions. At the end of the treatment time, Alamar Blue OD (at 570 nm and 600 nm) was recorded, then the cells were carefully washed in PBS, fixed in pre-chilled methanol for 10 min at −20° C., washed again twice in PBS, and blocked in PBS containing 0.1% Triton X-100 and 1% BSA for a minimum of 30 min. For H3 acetylation, rabbit-anti-acetyl-H3 (Upstate #06-599) was used as primary antibody at a dilution of 1:1000 for 45 min; the secondary antibody was HRP-coupled goat-anti-rabbit (Sigma #A-0545), used at 1:8000 for 45 min. For tubulin acetylation, the primary antibody was mouse anti-acetyl-tubulin (Sigma #T-6793, 1:2000, 45 min) while the secondary was HRP-coupled goat-anti-mouse antibody (Sigma #A-2304, 1:8000, 45 min). All antibodies were diluted in blocking buffer, and the cells were washed in blocking buffer following each antibody incubation. […] The fluorescent signal for acetylation was normalized by dividing with the viability data obtained from Alamar Blue. EC50 was defined as the concentration of compound which gave a signal half-way between the basal (untreated) level and the maximum level generated by high doses of the HDAC pan-inhibitor NVP-LAQ-824.

[4] = tested on: MT3 transcription in human T-cell leukemia Jurkat-T cells; assay: MT3 transcription in Jurkat-T cells, real time RT-PCR; format: cell-based; settings: 24 hours
Experimental: (§1) Total RNAs were extracted from cell pellets or from tumors using QiaShredder and RNeasy mini kit (Qiagen). 1 μg RNA was converted into cDNA using Expand RT enzyme (Roche) and Oligo(dT) primers (Invitrogen) in a 20 μl reaction volume. For quantitative real-time PCR, the primers used for MT3 were [NT] and [NT] and those for β-actin were [NT] and [NT]. Reactions with either pair of primers included an annealing temperature of 63.4° C. All real-time PCR reactions were performed on the MasterCycler ep Realplex (Eppendorf) using FastStart SYBRGreen Master (Roche).

H460 (NSCLC) xenografts = assay: H460 (NSCLC) xenograft, oral HDAC inhibitor with taxol; format: in vivo, mouse
Experimental: (§2) Antitumor studies were done using human H460 non-small cell lung tumor, Du145 prostate tumor, TSU-Pr1 prostate tumor, and AZ521 gastric tumor xenograft model in male BALBc/A nude mice (from Japan Crea Inc., Japan). Male nude mice were used at age 8-10 weeks. Human carcinoma cells were injected subcutaneously in the animal flank and allowed to form solid tumors. Tumor fragments (about 2 mm^3 fragments) were then removed and implanted subcutaneously through a small surgical incision to the right flank of other animals. […] Tumor volumes and gross body weight of animals were monitored twice weekly for up to 2 weeks for AZ-521 and TSU-Pr1, or 4 weeks for H460 and Du145 xenografts. Each experimental group contained 6 animals.

[5] = tested on: MT3 transcription in human myeloma RPMI-8226 cells; assay: MT3 transcription in RPMI-8226 cells, real time RT-PCR; format: cell-based; settings: 24 hours
Experimental: as §1

[6] = tested on: MT3 transcription in human colon cancer HCT15 cells; assay: MT3 transcription in HCT15 cells, real time RT-PCR; format: cell-based; settings: 1 uM
Experimental: as §1

[7] = tested on: human H460 non-small cell lung tumor xenograft; assay: H460 xenograft, combination with taxotere; format: in vivo, mouse; settings: H460, oral Compound A 3 times weekly with taxotere i.v. single dose
Experimental: as §2, with “lung” for “lung tumor, Du145 prostate tumor, TSU-Pr1 prostate tumor, and AZ521 gastric”, “mm^2” for “mm^3”, “subcutaneously” for “subcutaneously through a small surgical incision”, “3 weeks.” for “2 weeks for AZ-521 and TSU-Pr1, or 4 weeks for H460 and Du145 xenografts.”

[8] = tested on: bFGF expression in A549 (NSCLC) xenografts; assay: bFGF expression in A549 xenografts; format: in vivo; settings: 150 mg/kg, p.o., qdx3
[9] = tested on: anti-angiogenesis genes in colon adenocarcinoma HCT15 cells; assay: Microarray analysis of anti-angiogenesis genes in HCT15 cells; format: cell-based, human; settings: 1 μM, 24 h
Experimental: RNA labeling, microarray hybridization, scanning and analysis were performed by Genotypics (India). RNAs were labeled with either Cy3 or Cy5 using Agilent's optimized labeling kits and hybridized to Human whole genome 44K Oligo Microarray. Array chips were ordered from Agilent (Palo Alto, Calif.). Slides were scanned using a DNA microarry scanner from Agilent and the raw data was extracted using Agilent's image analysis tool (feature extraction software). Normalization and Statistical analysis were performed using GeneSpring software. Biological analysis was performed using Biointerpreter software.
FIG. 4a indicates a list of selected genes with anti-angiogenesis function. The numbers indicate the fold induction in treated samples compared to non-treated samples (average of three biological replicates ±standard deviation).

[10] = tested on: VEGF expression in A549 (NSCLC) xenografts; assay: VEGF expression in A549 xenografts; format: in vivo; settings: 150 mg/kg, p.o., qdx3

SMILES	MT3 transcription [1]	tubule length [2]	histone H3 acetylation [3]	MT3 transcription [4]	tumor response to combination therapy with taxol (H460 (NSCLC) xenografts; Compound A 100 mg/kg or SAHA 120 mg/kg with taxol 60 mg/kg)	anti-tumor effect of taxane (tumor volume) (H460 (NSCLC) xenografts; Compound A 100 mg/kg p.o. 3 times per week with taxol 60 mg/kg i.v. day 1)	MT3 transcription [5]	MT3 transcription [6]	antitumor activity of taxotere [7]	bFGF expression [8]	transcription of anti-angiogenesis genes [9]	VEGF expression [10]
Nc1ccc(-c2ccccc2)cc1NC(=O)c1ccc(N2CC[C@H](N)C2)cc1 [Compound D]	induction											
Nc1ccccc1NC(=O)c1ccc(CNc2nccc(-c3cccnc3)n2)cc1 [Compound A]		inhibits	dose-dependent induction	dose-dependent induction	tumor regression	potentiation	dose-dependent induction	much more potent than SAHA	Potentiation	suppression	affects several genes of the angiogenesis pathway; also recorded: induction	suppression
